In US11129867B2, “Method of treating cancer cells” (priority 2017, dated 2021):
Where a SMILES comes first, the peptide text is derived from it. The star is where a group is joined. X1 = CN(C)c1ccc2c(-c3ccc(C(=O)*)cc3C(=O)[O-])c3ccc(=[N+](C)C)cc-3oc2c1

Assays:
Caspase-3 = assay: Western blotting of Caspase-3; type: cell-based, human; details: Ca922, 25 μM, treatment time up to 48 hours, FIG. 11B, 11C
Protocol: (§1) Protein lysate of Ca922 cells treated with TMR-GBP 25 μM were blotted with antibodies against Caspase-3, Caspase-7, Caspase-9 and Poly (ADP-ribose) polymerase (PARP). Representative blots are shown.
Ca922 cells were treated with TMR-GBP and collected at indicated time points. Then blotted for Caspase-3 to observe whether TMR-GBP triggered […] apoptosis pathway.
(§2) Western Blotting Analysis
(§3) Cells were harvested by trypsion or scratch and lysed in RIPA buffer (50 mM Tris-HCl, pH 7.4, 150 mM NaCl, 0.1% SDS, 0.5% Sodium deoxycholate, 1% NP-40) supplemented with 1× protease inhibitor cocktail. Sample was incubated on ice for 30 minutes and scraped every 10 minutes. Centrifuge at 13,000 rpm at 4° C. for 15 minutes, then collect supernatant for analysis. Protein concentration was determined by Bradford assay. First, 5× Bradford assay dye reagent was diluted into […], and mixture with RIPA (as standard) or samples. Concentration was obtained by spectrophotometer measurement. Equal volume of 2× laemmli buffer containing β-ME was added into protein lysate for goal concentration. […] Washing the membrane three times with 1×PBST for every 5 minutes, protein band was detected by modified ECL (ddH2O, […] Tris pH8.0, 200 μM p-coumaric acid, 1.25 mM luminal, 0.001% H2O2) with ImageQuant LAS 4000 digital imaging system.

HeLa-Kyoto = assay: WST-8 cell viability assay, HeLa-Kyoto; type: cell-based; details: HeLa-Kyoto (cervical cancer), different concentrations, 48 hours, FIG. 3
Protocol: (§4) Human oral squamous cell carcinoma (OSCC) cell lines, Ca922, OSC20, OECM-1, OC3, CGHNC9, HSC3, plus A549, MDA-MB-231, MCF7, Huh7, HeLa-Kyoto, Detroit 562, H520, H2170, and 293T cells were used in this study. Ca922, CGHNC9, MDA-MB-231, MCF7, Huh7, HeLa-Kyoto, Detroit 562, and 293T cells were all cultured in high-glucose Dulbecco's Modified Eagle Medium (DMEM). OSC20 and HSC3 cells were cultured in Dulbecco's Modified of Eagle's Medium/Ham's F-12 50/50 Mix (1:1). OECM-1, A549, H520, and H2170 cells were grown in RPMI-1640 medium. All culture media were supplemented with 10% fetal bovine serum (FBS) and 1% penicillin-streptomycin. OC3 cells were cultured in 1:1 DMEM/KSFM (keratinocyte serum-free medium) with supplied supplement of Bovine pituitary extract (BPE) and epidermal growth factor (EGF) followed by instruction. All the cells in this study were maintained at 37° C. in humidified atmosphere containing 5% CO2.
(§5) WST-8 [2-(2-methoxy-4-nitrophenyl)-3-(4-nitrophenyl)-5-(2,4-disulfophenyl)-2H-tetrazolium, monosodium salt] cell viability assay
(§6) Cells were seeded into 96 well plate and incubated at 37° C. overnight. […] The amount of formazan produced is proportional to the number of live cells and is expressed as cellular viability. […] Cell viability was measured at the absorbance of 450/655 nm wavelength by ELISA reader.

H2170 = assay: WST-8 cell viability assay, H2170; type: cell-based; details: H2170 (lung cancer), different concentrations, 48 hours, FIG. 5
Protocol: as §4, §5
(§7) Cells were seeded into 96 well plate and incubated at 37° C. overnight. Endpoint measures of TMR-GBP or drugs were performed by water soluble tetrazolium salt (WST-8)-based colorimetric assay in triplicate which measures the metabolic conversion of WST-8 into formazan by mitochondrial dehydrogenases present in viable cells. The amount of formazan produced is proportional to the number of live cells and is expressed as cellular viability. When time was up, media were removed and supplemented with WST-8 cell viability reagent-contained cell culture medium (1:10) and incubated at 37° C. for 2 hours. Besides, three wells with WST-8-dissolved medium only (without cells) were reserved as a background control. Cell viability was measured at the absorbance of 450/655 nm wavelength by ELISA reader.

Detroit 562 = assay: WST-8 cell viability assay, Detroit 562; type: cell-based; details: Detroit 562 (pharynx cancer), different concentrations, 48 hours, FIG. 5
Protocol: as §4, §5, §7

293T = assay: WST-8 cell viability assay, 293T; type: cell-based; details: 293T (embryonic kidney), different concentrations, 48 hours, FIG. 3
Protocol: as §4, §5, §6

MDA-MB-231 = assay: WST-8 cell viability assay, MDA-MB-231; type: cell-based; details: MDA-MB-231 (breast cancer), different concentrations, 48 hours, FIG. 3
Protocol: as §4, §5, §6

Caspase-9 = assay: Western blotting of Caspase-9; type: cell-based, human; details: Ca922, 25 μM, FIG. 11B
Protocol: as §1, §2
as §3, with “concentration. Protein samples were boiled at 100° C. for 15 minutes and resolved by 10% SDS-PAGE gel or 4%-15% gradient gel. Then, transfer to PVDF membrane by 100V or 110V voltage for 1 hour.” for “concentration.”

A549 = assay: Time-lapse live cell imaging, A549; type: cell-based; details: A549, unbound TMR-GBP removed, imaged at 15 minutes interval for 16 hours, FIG. 4
Protocol: (§8) Time-Lapse Live Cell Imaging
(§9) In order to monitor cell morphology and the stability of TMR-GBP, cells were incubated in 35 mm dish or 4 well dish at 37° C. overnight. Replaced the culture medium with CO2-independent medium with supplement of 10% fetal bovine serum (FBS) and 1% penicillin-streptomycin, cells were treated with reagent (TMR, GBP, TMR-GBP) for the time according to the experiment and subjected to time-lapse live cell imaging. Cells were maintained on the microscope stage incubator at 37° C. Multiple-positional time-lapse imaging was performed using an automated Leica DMI6000 inverted microscope equipped with an HCX PL FL 20λ/NA0.4 objective and Andor Luca R EMCCD camera. Images of cells were taken at different interval time and analyzed by MetaMorph software.

Ca922 cells = assay: Time-lapse live cell imaging, Ca922; type: cell-based
Protocol: Ca922 cells were grown on 35 mm culture dishes overnight then treated with 1% DMSO, 12.5 μM TMR, GBP, TMR-GBP respectively and monitored by time-lapse live cell microscope. Cells were exposed to indicate wavelength once every 4 hours for 100 ms and continuously for 20 hours. At least 300 cells in five different fields were counted for each experiment using microcopy that captured images under 10× magnification. Mortality rate was evaluated by counting the percentage of dead cells in the whole population. Standard deviations of three independent experiments were indicated as bars.
as §8, §9

Structure (SMILES): CN(C)c1ccc2c(-c3ccc(C(=O)N[C@@H](CC(N)=O)C(=O)N[C@@H](Cc4ccc(O)cc4)C(=O)N[C@@H](CCCNC(=N)N)C(=O)N[C@@H](Cc4c[nH]c5ccccc45)C(=O)N[C@@H](CCCNC(=N)N)C(=O)N[C@@H](CS)C(=O)N[C@@H](CCCCN)C(=O)N[C@@H](CC(N)=O)C(=O)N[C@@H](CCC(N)=O)C(=O)N[C@@H](CC(N)=O)C(=O)O)cc3C(=O)[O-])c3ccc(=[N+](C)C)cc-3oc2c1 [TMR-GBP] (X1-NYRWRCKNQN-OH; N-terminus and C-terminus assumed)
- activation of caspase-3 (Caspase-3): did not activate
- cell viability (HeLa-Kyoto): not markedly affected
- cytotoxicity (cell viability) (H2170): could induce cytotoxicity
- cytotoxicity (cell viability) (Detroit 562): could induce cytotoxicity
- cell viability (293T): not markedly affected
- cell viability (MDA-MB-231): not markedly affected
- activation of caspase-9 (Caspase-9): did not activate
- cell death by time-lapse microscopy (A549): still alive after long-term TMR-GBP treatment
- cytotoxicity under light stress (mortality) (Ca922 cells; Ca922, 12.5 μM, exposed to 532 nm, 488 nm, 405 nm and brightfield, after 20 hours, FIG. 2): more sensitive to 532 nm light stress and displayed cytotoxic effects
- cell death by time-lapse microscopy (Ca922 cells; Ca922, unbound TMR-GBP removed, imaged at 15 minutes interval for 16 hours, FIG. 4): most cells die in 8 hours
